Source: US7098364B2, “Phenylethanolamine compounds as β2-receptor agonists, and methods of use and preparation thereof” (Shenyang Pharmaceutical University, priority 2001, dated 2006)

Test system: isolated guinea pig trachea strips
Assay: Antagonistic effect on histamine-induced bronchoconstriction in isolated guinea pig trachea strips
Format: cell-based
Conditions: trachea strips contracted by histamine (10^-6-10^-4 M) to 50% of maximum contraction; compounds at 10^-6 or 3×10^-4 M; Krebs-Hensleit solution, 37° C.
Method: The antagonistic effects of bronchoconstrtriction induced by histamine of the compounds of the present invention were evaluated by isolated guinea pig trachea strips.
Apparatus: polygrapher recorder, strain gauge transducer
Conditions: Krebs-Hensleit solution; gas mixture(95% O2, 5% CO2); Paper speed: 4 mm/min; 37° C.
Animals: guinea pigs (Harley, purchased from the Experimental Animal Center of China Medical University) of either sex weighting 350–500 g were used.
Reagent: Histamines phosphate solution(10^−6–10^−4M)
Method: Guinea pigs were sacrificed and the trachea strips(2 cm×3 mm) were prepared; the preparation was then mounted under a testing tension of 2 g in an organ bath containing 10 mL Kebs-Hensleits solution at 37° C. and superfused with the gas mixture mentioned above and the preparation was allowed to equilibrate for 2 h before the addition of histamine. When the tension of trachea strips reached 50% of the maximum contraction, the tested compounds was added to bath, and the antagonistic effect (represented as relaxing rate) was calculated as below: Relaxing rate=(Contraction intensity after histamine addition-Contraction intensity after tested compounds addition)/[…]×100%

SMILES: CC(C)NC(CO)c1cc(Cl)c(N)c(C(F)(F)F)c1.Cl (stereo not drawn)
- Relaxing rate (%): 52.5%

SMILES: CC(C)NC(CO)c1ccc(N)c(C#N)c1.Cl (stereo not drawn)
- Relaxing rate (%): 60.3%

SMILES: CC(C)(CO)NC(CO)c1cc(Cl)c(N)c(C#N)c1.Cl.Cl (stereo not drawn)
- Relaxing rate (%): 15.3%

SMILES: CC(C)NC(CO)c1cc(Br)c(N)c(C#N)c1.Cl (stereo not drawn)
- Relaxing rate (%): 77.6%

SMILES: CC(C)(CO)NC(CO)c1cc(Cl)c(N)c(C(F)(F)F)c1.Cl (stereo not drawn)
- Relaxing rate (%): 85.1%

SMILES: Cl.Nc1c(Br)cc(C(CO)NC2CCC2)cc1C(F)(F)F (stereo not drawn)
- Relaxing rate (%): 12.9%

SMILES: Cl.N#Cc1cc(C(CO)NC2CCC2)cc(Cl)c1N (stereo not drawn)
- Relaxing rate (%): 36.7%

SMILES: CC(C)(CO)NC(CO)c1cc(Br)c(N)c(C#N)c1.Cl (stereo not drawn)
- Relaxing rate (%): 89.6%

SMILES: CC(C)NC(CO)c1cc(Cl)c(N)c(C#N)c1.Cl.Cl (stereo not drawn) [drawing 20]
- Relaxing rate (%): 70.5%

SMILES: Cl.Cl.N#Cc1cc(C(CO)NC2CCC2)cc(Br)c1N (stereo not drawn)
- Relaxing rate (%): 30.8%

SMILES: Br.CC(C)(C)NC(CO)c1cc(Cl)c(N)c(C(F)(F)F)c1 (stereo not drawn)
- Relaxing rate (%): 165.9%

SMILES: Cl.N#Cc1cc(C(CO)NC2CCC2)ccc1N (stereo not drawn)
- Relaxing rate (%): 18.9%

SMILES: CC(C)(CO)NC(CO)c1cc(Br)c(N)c(C(F)(F)F)c1.Cl (stereo not drawn)
- Relaxing rate (%): 128.2%

SMILES: Cl.Nc1c(Br)cc(C(CO)NC2CC2)cc1C(F)(F)F (stereo not drawn)
- Relaxing rate (%): 10.2%

SMILES: CC(C)(CO)NC(CO)c1ccc(N)c(C#N)c1.Cl (stereo not drawn)
- Relaxing rate (%): 65.3%

SMILES: CC(C)NC(CO)c1cc(Cl)c(N)c(C#N)c1.Cl.Cl (stereo not drawn) [drawing 7]
- Relaxing rate (%): 69.2%

SMILES: Cl.Cl.N#Cc1cc(C(CO)NC2CC2)ccc1N (stereo not drawn)
- Relaxing rate (%): 15.7%

SMILES: CC(C)(C)NC(CO)c1ccc(N)c(C(F)(F)F)c1.Cl (stereo not drawn)
- Relaxing rate (%): 55.6%
